Ten molecules from ChEMBL document CHEMBL3421576, “N-((1,3-Diphenyl-1H-pyrazol-4-yl)methyl)anilines: A novel class of anti-RSV agents” (Bioorg Med Chem Lett, 2015) can be followed below.

A value given as a limit tells only on which side of the number the result lay.

In data set [1] the test system is Human immunodeficiency virus 1. Nature of the data set: Antiviral activity against HIV1 infected in human MT4 cells assessed as protection against viral-induced cytopathogenecity after 4 days by MTT method. The format is functional, organism-based. The note with it: Human immunodeficiency virus 1, MT4, 96 h. A general note: Tetrazolium dyes change colour on reduction, which living cells bring about.

Data set [2] can be described thus: Cytotoxicity against human MT4 cells assessed as cell viability after 96 hrs by MTT method. In kind it is cell-based.
Data set [3] is described as follows: Cytotoxicity against African green monkey Vero 76 cells assessed as cell viability after 48 to 96 hrs by MTT method. In kind it is cell-based. The note with it: chlorocebus sabaeus, Vero 76 cells.
Data set [4] relates to Human alphaherpesvirus 1. Put plainly: Antiviral activity against HSV1 infected in African green monkey Vero 76 cells after 3 days by plaque reduction assay. In kind it is functional, organism-based. The note with it: Human alphaherpesvirus 1, Vero, 72 h. A general note: Plaques are areas of infected cells; plaque reduction assays count them against a control.
Data set [5] can be described thus: Cytotoxicity against hamster BHK21 cells assessed as cell viability after 72 hrs by MTT method. In kind it is cell-based, Mesocricetus auratus, BHK-21.
The test system of data set [6] is Respiratory syncytial virus. Nature of the data set: Antiviral activity against RSV infected in African green monkey Vero 76 cells after 5 days by plaque reduction assay. In kind it is functional, organism-based. The note with it: human respiratory syncytial virus, Vero, 120 h.
Data set [7] is described as follows: Selectivity index, ratio of CC50 for bovine MDBK cells to EC50 for BVDV infected in bovine MDBK cells.
In data set [8] the test system is Yellow fever virus. Nature of the data set: Antiviral activity against YFV infected in hamster BHK21 cells assessed as protection against viral-induced cytopathogenecity after 3 to 4 days by MTT method. The format is functional, organism-based, BHK-21. The note with it: Yellow fever virus, BHK-21.
Data set [9] has as its system Enterovirus C. Nature of the data set: Antiviral activity against Poliovirus Sb-1 infected in African green monkey Vero 76 cells after 2 days by plaque reduction assay. The note with it: Enterovirus C, Sb-1, Vero, 48 h. In kind it is functional, organism-based.
Data set [10] relates to Bovine viral diarrhea virus 1. Nature of the data set: Antiviral activity against BVDV infected in bovine MDBK cells assessed as protection against viral-induced cytopathogenecity after 3 to 4 days by MTT method. The format is functional, organism-based. The note with it: Bovine viral diarrhea virus isolates and strains, MDBK.
Data set [11] concerns Mammalian orthoreovirus 1. Put plainly: Antiviral activity against Reovirus 1 infected in hamster BHK21 cells assessed as protection against viral-induced cytopathogenecity after 3 to 4 days by MTT method. The format is functional, cell-based. The note with it: Mammalian orthoreovirus 1, BHK-21.
Data set [12] deals with Vesicular stomatitis virus. Nature of the data set: Antiviral activity against VSV infected in African green monkey Vero 76 cells after 2 days by plaque reduction assay. In kind it is functional, organism-based. The note with it: Vesicular stomatitis virus, Vero, 48 h.
The test system of data set [13] is Coxsackievirus B5. Nature of the data set: Antiviral activity against Coxsackievirus B5 infected in African green monkey Vero 76 cells after 3 days by plaque reduction assay. In kind it is functional, organism-based. The note with it: Enterovirus B, Vero, 72 h.
Data set [14] in a line: Cytotoxicity against bovine MDBK cells assessed as cell viability after 72 hrs by MTT method. The note with it: cattle. The format is cell-based, Bos taurus.
The test system of data set [15] is Vaccinia virus. Nature of the data set: Antiviral activity against Vaccinia virus infected in African green monkey Vero 76 cells after 3 days by plaque reduction assay. In kind it is functional, organism-based, Orthopoxvirus vaccinia. The note with it: Orthopoxvirus vaccinia, Vero, 72 h.
Data set [16] is described as follows: Selectivity index, ratio of CC50 for African green monkey Vero 76 cells to EC50 for RSV infected in African green monkey Vero 76 cells.
A short description of data set [17]: Selectivity index, ratio of CC50 for hamster BHK21 cells to EC50 for YFV infected in hamster BHK21 cells. The arrangement: species or system BHK-21.

As to `Cc1ccc(NCc2cn(-c3ccccc3)nc2-c2ccc(C(F)(F)F)cc2)cc1`, the 50% effective concentration (EC50) in data set [1] is above 100 µM; in data set [4], above 82 µM; in data set [6], 25 µM; in data set [8], above 88 µM; in data set [9], above 82 µM; in [10], 54 µM. Also, the concentration giving a half-maximal response (EC50) is above 88 µM in [11], above 82 µM in data set [12], above 82 µM in data set [13] and above 82 µM in data set [15]. Also, in data set [2], the CC50 at 96 h is above 100 µM. The CC50 in data set [3] amounted to 82 µM. Also, the half-maximal cytotoxic concentration (CC50) at 72 h in [5] is 88 µM; in [14], above 100 µM. Further, the figures for the “Ratio CC50/EC50” value in data set [7] and in data set [16] were above 1.8 and 3.3, respectively.
With `Cc1ccc(NCc2cn(-c3ccccc3)nc2-c2ccccc2)cc1`, the “Ratio CC50/EC50” value in data set [17] is given as above 1.5; in data set [7], above 1.9; in [16], above 3.6. In addition, the concentration giving a half-maximal response (EC50) in [1] is above 100 µM; in [4], above 100 µM; in data set [6], 28 µM; in [8], 65 µM; in [9], above 100 µM; in data set [10], 53 µM. Besides, the EC50 in data set [11], in [12], in data set [13] and in data set [15] was above 100 µM in each case. Besides, in data set [2], the 50% cytotoxic concentration (CC50) at 96 h was above 100 µM. Besides, the CC50 in data set [3] is above 100 µM. For the same molecule, the 50% cytotoxic concentration (CC50) at 72 h in data set [5] and in data set [14] was above 100 µM throughout.
For the molecule `Clc1ccc(NCc2cn(-c3ccccc3)nc2-c2ccccc2)cc1`, the EC50 was above 100 µM in data set [1]; above 65 µM in data set [4]; 6 µM in data set [6]; 29 µM in data set [8]; above 65 µM in data set [9]; 29 µM in [10]. Further, the EC50 in data set [11] was above 100 µM; in data set [12] it was above 65 µM; in [13] it was above 65 µM; in data set [15] it was above 65 µM. In data set [2], the CC50 at 96 h is above 100 µM. In addition, the CC50 in data set [3] amounted to 65 µM. Further, the CC50 at 72 h in data set [5] and in data set [14] was above 100 µM each time. The “Ratio CC50/EC50” value in data set [7] is above 3.4; in data set [16] it was 10.8.
`NC(=O)c1ncn([C@@H]2O[C@H](CO)[C@@H](O)[C@H]2O)n1` [RIBAVIRIN]: the 50% cytotoxic concentration (CC50) in data set [3] was above 100 µM. Also, the EC50 in [6] came out at 35 µM; in data set [10], 19 µM. Moreover, the “Ratio CC50/EC50” value in data set [7] was 3; in data set [16], above 2.8. In addition, the CC50 at 72 h in data set [14] is 57 µM.
In the case of `Clc1ccc(NCc2cn(-c3ccccc3)nc2-c2ccc(Cl)cc2)cc1`, the half-maximal effective concentration (EC50) in data set [1] is above 100 µM; in data set [4], above 90 µM; in data set [6], 13 µM; in data set [8], above 73 µM; in [9], above 90 µM; in data set [10], 31 µM. The EC50 in [11] was above 73 µM; in data set [12] it was above 90 µM; in data set [13], above 90 µM; in data set [15], above 90 µM. The cytotoxic concentration (CC50) at 96 h in [2] was above 100 µM. Besides, the half-maximal cytotoxic concentration (CC50) in data set [3] turned out to be 90 µM. Moreover, the CC50 at 72 h in data set [5] was 73 µM; in [14] it was above 100 µM. The “Ratio CC50/EC50” value was above 3.2 in data set [7] and 6.9 in data set [16].
For the molecule `Cc1ccc(-c2nn(-c3ccccc3)cc2CNc2ccccc2)cc1`, the entries for the “Ratio CC50/EC50” value in [17] and in [16] were above 2.6 and 2.3, respectively. The concentration giving a half-maximal response (EC50) in data set [1] was above 100 µM; in data set [4] it was above 52 µM; in data set [6], 23 µM; in data set [8] it was 38 µM; in data set [9] it was above 52 µM; in data set [10], above 100 µM. The EC50 is above 100 µM in [11], above 52 µM in data set [12], above 52 µM in data set [13] and above 52 µM in data set [15]. For the same molecule, in [2], the CC50 at 96 h was above 100 µM. Moreover, the half-maximal cytotoxic concentration (CC50) in data set [3] was determined as 52 µM. The half-maximal cytotoxic concentration (CC50) at 72 h in data set [5] and in data set [14] was above 100 µM each time.
On to `Brc1ccc(NCc2cn(-c3ccccc3)nc2-c2ccccc2)cc1`, for which the “Ratio CC50/EC50” value in data set [17] is reported as above 3.1; in data set [7], above 3.2; in data set [16] it was 5.8. Besides, the 50% effective concentration (EC50) in data set [1] is above 100 µM; in [4], above 52 µM; in [6], 9 µM; in [8], 32 µM; in data set [9], above 52 µM; in data set [10] it was 31 µM. For the same molecule, the EC50 was above 100 µM in [11], above 52 µM in [12], above 52 µM in [13] and above 52 µM in data set [15]. Also, in [2], the CC50 at 96 h is above 100 µM. Moreover, in [3], the half-maximal cytotoxic concentration (CC50) was found to be 52 µM. Further, the CC50 at 72 h in data set [5] and in data set [14] was above 100 µM throughout.
Consider `Brc1ccc(-c2nn(-c3ccccc3)cc2CNc2ccccc2)cc1`, for which the entries for the “Ratio CC50/EC50” value in data set [17] and in [16] were above 5 and 5.8, respectively. Moreover, the EC50 in data set [1] is above 100 µM; in data set [4], above 52 µM; in [6], 9 µM; in [8], 20 µM; in data set [9], above 52 µM; in [10], above 100 µM. The half-maximal effective concentration (EC50) in data set [11] is above 100 µM; in [12], above 52 µM; in data set [13], above 52 µM; in data set [15], above 52 µM. Moreover, the cytotoxic concentration (CC50) at 96 h in data set [2] was above 100 µM. Further, the cytotoxic concentration (CC50) in data set [3] is 52 µM. Further, the CC50 at 72 h in data set [5] and in data set [14] was above 100 µM in each case.
On to `Cc1ccc(-c2nn(-c3ccccc3)cc2CNc2ccc(Cl)cc2)cc1`, for which the entries for the “Ratio CC50/EC50” value in [17] and in [16] were above 2.9 and above 7.1, respectively. Moreover, the half-maximal effective concentration (EC50) in [1] was above 100 µM; in [4], above 100 µM; in data set [6] it was 14 µM; in data set [8] it was 34 µM; in [9], above 100 µM; in data set [10], above 100 µM. In addition, the EC50 in data set [11], in data set [12], in data set [13] and in [15] was above 100 µM each time. The CC50 at 96 h in data set [2] was above 100 µM. In addition, the cytotoxic concentration (CC50) in [3] was above 100 µM. Besides, the CC50 at 72 h in data set [5] and in data set [14] was above 100 µM throughout.
With `Cc1ccc(NCc2cn(-c3ccccc3)nc2-c2ccc(Cl)cc2)cc1`, the EC50 is above 100 µM in [1]; above 100 µM in data set [4]; 13 µM in data set [6]; above 100 µM in data set [8]; above 100 µM in data set [9]; 55 µM in data set [10]. Also, the EC50 in [11], in data set [12], in data set [13] and in [15] was above 100 µM throughout. Besides, in data set [2], the CC50 at 96 h is above 100 µM. In addition, the CC50 in data set [3] was above 100 µM. Further, the half-maximal cytotoxic concentration (CC50) at 72 h in data set [5] and in data set [14] was above 100 µM each time. The “Ratio CC50/EC50” value is on record as above 1.8 in [7] and above 7.7 in data set [16].

The EC50 is the midpoint of the concentration-response curve. What is called CC50 is the concentration giving 50% cytotoxicity.
